Results as given in patent US4623648A, “1-azaxanthone for use as therapeutic agent as an antipyretic, analgesic, anti-inflammatory and bronchodilator” (priority 1981, dated 1986).
In brackets after ≈: the same amount, converted by molar mass. Where two headings read alike, the source gives them in different places.

Experiments:
rats [1] = assay: Subacute toxicity study in rats (42 days); type: in vivo
[2] = system: guinea pig tracheal chain; assay: Isolated guinea pig tracheal chain; conditions: Cavia porcellus, bath nutrient liquid
Description: (§1) Sprague-Dawley rats, Swiss mice, California rabbits and mongrel guinea pigs and cats were used. 1-azaxanthone was administered as a suspension in 0.5 % w/v of carboxymethyl-cellulose in distilled water for oral and i.p. administration. When administered i.v. or to the nutrient liquid of the isolated tissues, a solution of the compound in isopropylidenglycerol (15 mg/ml) was used.
Isolated guinea pig tracheal chain (according to J. C. Castillo and E. K. DeBeer, J. Pharmacol. Exptl. Ther. 1947, 90, 104). 1-azaxanthone produced maximum relaxation of the tracheal muscle at a concentration of 20 μg/ml in the bath nutrient liquid. The minimun effective dose was about 5 μg/ml.

[3] = system: turpentine-induced pleurisy; assay: Turpentine-induced pleurisy; conditions: in vivo
cats = assay: Physiologic peristaltic movements in cats; type: in vivo; conditions: 4 mg/kg endovenously
Description: as §1

rats [4] = assay: Chronic administration to rats (92 days); type: in vivo
Guinea pig ileum = Guinea pig ileum in vitro spasmolytic assay; conditions: Cavia porcellus, read-out: ED50 (dose which inhibits the response of the ileum to the agonist by 50%)
Description: as §1
Guinea pig ileum (according to R. Magnus, Pflugers Arch. Ges. Physiol. 1904, 102, 123). In this "in vitro" assay 1-azaxanthone had the following ED50 with different agonists (dose which inhibits the response of the ileum to the agonists by 50%): […]

[5] = system: Mycob. Butyricum induced arthritis; assay: Mycob. Butyricum induced arthritis; type: in vivo; conditions: only in preventative treatment
Excerpt: Butyricum induced arthritis (only in preventative treatment).

guinea pig [6] = assay: Inhibition of the bronchoconstrictor response to bradykinin in guinea pig; type: in vivo; conditions: 8 mg/kg i.v.; 10 min after 6 μg and 8 min before 12 μg of bradykinin
Description: as §1
Inhibition of the bronchoconstrictor response to bradykinin in guinea pig (according to H. Konzett and R. Rossler, ibid.). 1-azaxanthone (8 mg/kg i.v.) produced a 100% inhibition of the response induced by bradykinin when the test compound was administered 10 min after 6 μg and 8 min before 12 μg of bradykinin.

abscess = assay: Carrageenan-induced abscess; type: in vivo; conditions: 50×2 mg/kg per os
Description: as §1
Carrageenan-induced abscess (according to K. F. Benitz and L. M. Hall, Arch. Int. Pharmacodyn. 1963, 144, 185).

granuloma tissue = assay: Cotton-pellet granuloma; type: in vivo; conditions: 200 mg/kg/day per os, 5 consecutive days
Description: as §1
Cotton-pellet granuloma (according to R. Meier et al., Experientia (Basel), 1950, 6, 469).

Acute toxicity in mice = conditions: mouse, in vivo, ip, female mice
Description: The acute toxicity of 1-azaxanthone was evaluated in rats and mice. LD50 values ranged between 400-600 mg/kg (i.p. route) and between 600-2000 mg/kg (oral route) depending on species and sex.

guinea pig [7] = assay: Inhibition of the bronchoconstrictor response to histamine in guinea pig; type: in vivo; conditions: 8 mg/kg i.v., 5 μg histamine
Description: as §1
Inhibition of the bronchoconstrictor response to histamine in guinea pig (according to H. Konzett and R. Rossler, Arch. Exptl. Path. Pharmak. 1940, 195, 71). 1-azaxanthone (8 mg/kg i.v.) inhibited the response induced by 5 μg of histamine by 100% at 5 min, 67% at 10 min, 50% at 20 min, and 15% at 30 min after administration.

rabbits [8] = assay: Lipopolysaccharide hyperthermia in rabbits with established fever; type: in vivo; conditions: 200 mg/kg i.p.
Description: as §1
Hyperthermia induced in rabbits by i.v. injection of lipopolysaccharide of Escherichia coli (according to C. A. Winter and G. W. Nuss, Toxic. Appl. Pharmacol. 1963, 5, 247). […] The compound was also effective when administered to rabbits with established fever; for example, when 200 mg/kg of 1-azaxanthone were administered i.p. to a group of 5 rabbits from a total of 10 with mean hyperpyrexia of +1.15° C. 2 hours after the lipopolysaccharide injection, the hyperpyrexia of the treated group was +0.7° C. at 2 hours and +0.1° C. at 3 hours, while the hyperpyrexia of the untreated animals was 1.5° C. at 2 hours and 1.15° C. at 3 hours (all periods after administration of the test compound).

rabbits [9] = assay: Hyperthermia induced in rabbits by lipopolysaccharide of Escherichia coli, preventive; type: in vivo; conditions: 0.1 μg/kg lipopolysaccharide
Description: Sprague-Dawley rats, Swiss mice, California rabbits and mongrel guinea pigs and cats were used. 1-azaxanthone was administered as a suspension in 0.5 % w/v of carboxymethyl-cellulose in distilled water for oral and i.p. administration.

mice [10] = assay: Phenyl-p-benzoquinone induced writhing in mice; type: in vivo; conditions: Mus musculus; oral; 95% confidence limits 6.1-11.8
Description: as §1
Phenyl-p-benzoquinone induced writhing in mice (according to E. A. Siegmund et al., J. Pharmacol. Exptl. Therap. 1957, 119, 453). […] I

mice [11] = assay: Charcoal intestinal transit in mice; type: in vivo
Description: as §1
Charcoal intestinal transit in mice. 1-azaxanthone was administered i.p. 1 hour before the oral administration of 0.1 ml/mouse of an active charcoal suspension (10 g of charcoal and 1 g of gum arabicum +70 ml of distilled water). 1.5 hours after the charcoal administration the animals were sacrificed, and the length travelled by the charcoal from the pylorus was measured.

Evans blue permeability = Evans blue permeability assay; conditions: in vivo
[12] = Water solubility (general statement); type: physicochemical
central nervous system = assay: Effect on the central nervous system; type: in vivo, mice and rats

**Q.** What does the source list for `O=c1c2ccccc2oc2ncccc12` [1-azaxanthone]?
**A.** reversibility of hepatomegaly (rats [1]; another study, on discontinuing the administration): fully reversible; hepatomegaly (rats [1]; oral, 42 days): developed a hepatomegaly; histology of hepatomegaly (rats [1]; oral, 42 days): increased volume of hepatic nucleoles; drug-related toxic effect (rats [1]; oral, 42 days, up to 200 mg/kg/day): did not show any drug-related toxic effect; EC (maximum relaxation) ([2]; read-out: concentration producing maximum relaxation of the tracheal muscle): 20 µg/mL; minimal effective concentration ([2]; read-out: minimum effective dose (tracheal relaxation)): ~5 µg/mL; activity in turpentine-induced pleurisy [3]: showed activity; inhibition of physiologic peristaltic movements (cats): inhibited physiologic peristaltic movements; effect on body weight increase and hematological/serum parameters (rats [4]; 25 mg/kg/day oral): without statistically significant effect; alteration of parameters compared to control group (rats [4]; 100 mg/kg/day oral): some of these parameters were altered; survival (rats [4]; oral): all animals survived; weights of the main organs (rats [4]; oral): within normal limits; IC50 (Guinea pig ileum; agonist: Acetylcholine): 14.3 µg/mL (≈ 72.3 µM); IC50 (Guinea pig ileum; agonist: BaCl2): 19.7 µg/mL (≈ 100 µM); IC50 (Guinea pig ileum; agonist: Histamine): 22.9 µg/mL (≈ 116 µM); IC50 (Guinea pig ileum; agonist: Nicotine): 27.8 µg/mL (≈ 141 µM); activity in Mycob. Butyricum induced arthritis [5]: showed activity; inhibition of response induced by bradykinin (guinea pig [6]): 100%; inhibition of dry weight of the abscess (abscess): 48.4%; inhibition of wet weight of the abscess (abscess): 34.6%; inhibition of weight of dried granuloma tissue (granuloma tissue): 17.4%; inhibition of weight of wet granuloma tissue (granuloma tissue): 13.5%; LD50 (Acute toxicity in mice): 600 mg/kg; inhibition of response induced by histamine (guinea pig [7]; 5 min after administration): 100%; inhibition of response induced by histamine (guinea pig [7]; 10 min after administration): 67%; inhibition of response induced by histamine (guinea pig [7]; 20 min after administration): 50%; inhibition of response induced by histamine (guinea pig [7]; 30 min after administration): 15%; hyperpyrexia of the treated group (rabbits [8]; 2 hours after administration (untreated 1.5° C.)): +0.7 °C; hyperpyrexia of the treated group (rabbits [8]; 3 hours after administration (untreated 1.15° C.)): +0.1 °C; reduction of the increase in rectal temperature (rabbits [9]; 100 mg/kg i.p., control increase 1.85° C.): 0.7 °C; protection against increase in rectal temperature (rabbits [9]; 200 mg/kg i.p.): completely protected the animals; ED50 (mice [10]): 8.9 mg/kg; inhibition of charcoal intestinal transit (mice [11]; 4 mg/kg i.p.): 15%; inhibition of charcoal intestinal transit (mice [11]; 6.2 mg/kg i.p.): 22%; inhibition of charcoal intestinal transit (mice [11]; 12.5 mg/kg i.p.): 37%; inhibition of charcoal intestinal transit (mice [11]; doses lower than 4 mg/kg i.p.): inactive; activity in Evans blue permeability assay (Evans blue permeability): showed activity; water solubility [12]: low water solubility; activity on the central nervous system (central nervous system; in vivo): Clear activity on the central nervous system was not observed; signs of depression (central nervous system; mice and rats at high doses): some signs of depression
